Like-named read-outs stand apart in the source and are kept apart here.
Target: full length NS3/4a (Hepatitis C virus genotype 1b (isolate BK) (HCV), UniProt P26663)
Test: NS3 Protease Assay (Example A), FRET-based
Type: biochemical
Experimental: The HCV NS3 protease functions have been extensively studied and are considered as potential targets for antiviral therapy: see for example the many references listed in the introductory section of this application. Therefore, the activity of the compounds of the invention as anti-HCV agents was assessed using a full length HCV NS3 protease.
The protease activity of the full length NS3/4a was measured using a FRET-based assay utilizing a peptide substrate derived from the NS4A/B cleavage site (Anaspec) and labelled at one end with a quencher (QXL520) and at the other with a fluorophore (5-FAMsp). NS3/4a (produced in-house by literature methods) was incubated with test compounds and peptide substrate in 50 mM Tris pH8, 20 mM DTT, 1% CHAPS, 10% glycerol and 5% DMSO. The reaction was followed by monitoring the change in fluorescence on a Molecular Devices Gemini plate reader for 30 minutes at room temperature. Initial rates were calculated from the progress curves using SoftMax Pro (Molecular Devices). IC50 values were then calculated from replicate curves using Prism GraphPad software.

[1] = HCV NS3 protease assay, full length NS3/4a, read-out: Assay A IC50 (μM) average
[2] = read-out: IC50 against the protease activity of the full length NS3/4a
[3] = stated as IC50 less than 30 μM or at least 40% inhibition at a concentration of 100 μM, read-out: IC50 against the protease activity of the full length NS3/4a

full length NS3/4a, sequence (P26663 1027-1657): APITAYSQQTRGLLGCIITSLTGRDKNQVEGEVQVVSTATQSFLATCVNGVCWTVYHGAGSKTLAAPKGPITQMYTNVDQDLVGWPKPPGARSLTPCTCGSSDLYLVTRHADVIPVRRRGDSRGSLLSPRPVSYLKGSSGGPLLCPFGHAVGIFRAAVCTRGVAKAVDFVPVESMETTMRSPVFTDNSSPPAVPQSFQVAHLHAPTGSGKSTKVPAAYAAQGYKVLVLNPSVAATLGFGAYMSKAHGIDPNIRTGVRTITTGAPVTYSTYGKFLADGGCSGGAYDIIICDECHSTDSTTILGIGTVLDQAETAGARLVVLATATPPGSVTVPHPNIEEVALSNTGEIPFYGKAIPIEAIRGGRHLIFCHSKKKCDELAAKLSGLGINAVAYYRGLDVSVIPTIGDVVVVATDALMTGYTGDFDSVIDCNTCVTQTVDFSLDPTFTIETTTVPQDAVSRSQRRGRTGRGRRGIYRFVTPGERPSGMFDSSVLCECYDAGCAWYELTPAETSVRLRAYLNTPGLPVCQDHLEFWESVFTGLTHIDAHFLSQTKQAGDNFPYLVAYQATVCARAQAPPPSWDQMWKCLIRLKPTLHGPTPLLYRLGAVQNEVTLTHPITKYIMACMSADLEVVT

| Compound | IC50 [1] | IC50 [2] | also measured |
| --- | --- | --- | --- |
| CCC(NC1CCCC1C(N)=O)c1ccc(Cl)c(C(=O)c2ccc(N)nc2)c1F (single isomer, unassigned) [Example 126, 2-{[1-{3-[(6-aminopyridin-3-yl)carbonyl]-4-chloro-2-fluorophenyl}propyl]amino} cyclopentane-1-carboxamide] | 0.12 µM | < 1 µM | – |
| CCC(NC1CCCC1C(N)=O)c1ccc(Cl)c(C(=O)c2ccc(N)nc2)c1F (single isomer, unassigned) [Example 127, 2-{[1-{3-[(6-aminopyridin-3-yl)carbonyl]-4-chloro-2-fluorophenyl}propyl]amino} cyclopentane-1-carboxamide] | 1.6 µM | 1 to 5 µM | – |
| CCC(NC1CCCC1C(N)=O)c1ccc(Cl)c(C(=O)c2ccc(N)nc2)c1F (single isomer, unassigned) [Example 161, 2-{[1-{3-[(6-aminopyridin-3-yl)carbonyl]-4-chloro-2-fluorophenyl}propyl]amino} cyclopentane-1-carboxamide] | – | – | inhibition at 10 µM (@ 10 uM): 60%; IC50 [3]: < 30 µM |
| CCC(NC[C@H](C)C(N)=O)c1ccc(Cl)c(C(=O)c2cccnc2)c1F (stereo in doubt) [Example 175, (2S)-3-{[(1R)-1-{4-chloro-2-fluoro-3-[(pyridin-3-yl)carbonyl]phenyl}-propyl]amino}-2-methylpropanamide] | 1.1 µM | 1 to 5 µM | – |
| CC[C@@H](N)c1ccc(Cl)c(C(=O)c2ccc(O)cc2)c1F (stereo in doubt) [Example 193, [3-(1-Amino-propyl)-6-chloro-2-fluoro-phenyl]-(4-hydroxy-phenyl)-methanone] | 0.31 µM | < 1 µM | – |
| CC[C@@H](N)c1ccc(Cl)c(C(=O)c2ccc(N)nc2)c1F [Example 1, 5-({3-[(1R)-1-aminopropyl]-6-chloro-2-fluorophenyl}carbonyl)-pyridin-2-amine] | 0.089 µM | < 1 µM | – |
| CC[C@@H](N)c1ccc(Cl)c(C(=O)c2cccnc2)c1F [Example 2, (1R)-1-{4-chloro-2-fluoro-3-[(pyridin-3-yl)carbonyl]phenyl}-propan-1-amine] | 1.4 µM | 1 to 5 µM | – |
| CC[C@@H](N)c1ccc(Cl)c(C(=O)c2cnc(N)cn2)c1F [Example 3, 5-({3-[(1R)-1-aminopropyl]-6-chloro-2-fluorophenyl}carbonyl)-pyrazin-2-amine] | 1.3 µM | 1 to 5 µM | – |
| CC[C@@H](N)c1ccc(Cl)c(C(=O)c2ccc(N)cn2)c1F [Example 5, 6-({3-[(1R)-1-aminopropyl]-6-chloro-2-fluorophenyl}carbonyl)-pyridin-3-amine] | – | 1 to 5 µM | inhibition at 3 µM (@ 3 uM): 55% |
| CC[C@H](N)c1ccc(Cl)c(C(=O)c2ccccc2)c1F [Example 6, (1S)-1-(3-benzoyl-4-chloro-2-fluorophenyl)propan-1-amine] | – | < 1 µM | inhibition at 0.3 µM (@ 0.3 uM): 80% |
| CC[C@@H](N)c1ccc(Cl)c(C(=O)c2cccc(F)c2)c1F [Example 7, (1R)-1-{4-chloro-2-fluoro-3-[(3-fluorophenyl)carbonyl]-phenyl}propan-1-amine] | 0.38 µM | < 1 µM | – |
| CC[C@@H](N)c1ccc(Cl)c(C(=O)c2ccc(F)cc2)c1F [Example 8, (1R)-1-{4-chloro-2-fluoro-3-[(4-fluorophenyl)carbonyl]-phenyl}propan-1-amine] | 0.19 µM | < 1 µM | – |
| CC[C@@H](N)c1ccc(Cl)c(C(=O)c2ccncn2)c1F [Example 10, (1R)-1-{4-chloro-2-fluoro-3-[(pyrimidin-4-yl)carbonyl]phenyl}-propan-1-amine] | 3.5 µM | 1 to 5 µM | – |
| CC[C@@H](N)c1ccc(Cl)c(C(=O)c2cncnc2)c1F [Example 12, (1R)-1-{4-chloro-2-fluoro-3-[(pyrimidin-5-yl)carbonyl]phenyl}-propan-1-amine] | – | – | inhibition at 30 µM (@ 30 uM): 47%; IC50 [3]: < 30 µM |
| CC[C@@H](N)c1ccc(Cl)c(C(=O)c2ccc(F)c(F)c2)c1F [Example 13, (1R)-1-{4-chloro-3-[(3,4-difluorophenyl)carbonyl]-2-fluorophenyl}propan-1-amine] | 0.83 µM | < 1 µM | – |
